Assay [1] concerns the target Mu-type opioid receptor (Homo sapiens, UniProt P35372). As to the kind of experiment: Displacement of [3H]diprenorphine from mu opioid receptor expressed in human HEK293 cells. It is filed as cell-based. A general note: Loss of bound radioactivity is the signal in a displacement assay; it reports binding, not function.
The target of assay [2] is Mu-type opioid receptor (Cavia porcellus, UniProt P97266). As to the kind of experiment: Agonist activity at mu opioid receptor in guinea pig ileum longitudinal muscle. It counts as functional, tissue-based.
Assay [3] concerns the target Kappa-type opioid receptor (Homo sapiens, UniProt P41145). Description: Displacement of [3H]diprenorphine from kappa opioid receptor expressed in human HEK293 cells. It counts as cell-based.
In assay [4] the target is Opioid receptors; mu & delta (Homo sapiens) (UniProt P41143+P35372). As to the kind of experiment: Selectivity for human delta opioid receptor to human mu opioid receptor. It counts as protein assay.
Assay [5] deals with Delta-type opioid receptor (Homo sapiens, UniProt P41143). Description: Displacement of [3H]diprenorphine from delta opioid receptor expressed in human HEK293 cells. It counts as cell-based.
Assay [6] has as its target Delta-type opioid receptor (Mus musculus, UniProt P32300). As to the kind of experiment: Agonist activity at delta opioid receptor in mouse vas deferens. It counts as functional, tissue-based.
The target in assay [7] is Opioid receptors; delta & kappa (Homo sapiens) (UniProt P41145+P41143). Description: Selectivity for human delta opioid receptor to human kappa opioid receptor. It counts as protein assay.

Drawing on ChEMBL document CHEMBL1145404, “o-Naphthalenedicarboxaldehyde derivative of 7'-aminonaltrindole as a selective delta-opioid receptor affinity label” (J Med Chem, 2007), this text covers Ki, IC50 and Ratio Ki for one compound.

Molecules are shown by their SMILES.

Chain of Kappa-type opioid receptor (P41145 whole entry): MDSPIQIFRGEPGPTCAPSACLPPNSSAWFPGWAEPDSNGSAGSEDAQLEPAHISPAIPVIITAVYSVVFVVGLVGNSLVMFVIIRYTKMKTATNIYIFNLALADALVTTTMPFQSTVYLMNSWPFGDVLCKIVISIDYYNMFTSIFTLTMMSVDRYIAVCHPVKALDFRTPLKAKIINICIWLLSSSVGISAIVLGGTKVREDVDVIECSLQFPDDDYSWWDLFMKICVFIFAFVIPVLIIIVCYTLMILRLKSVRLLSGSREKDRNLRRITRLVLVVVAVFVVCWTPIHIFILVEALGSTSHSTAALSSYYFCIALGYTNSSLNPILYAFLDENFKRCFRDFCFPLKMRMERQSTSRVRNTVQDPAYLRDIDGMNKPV
Chain of Opioid receptors; mu & delta (Homo sapiens) (P35372 whole entry, looked up): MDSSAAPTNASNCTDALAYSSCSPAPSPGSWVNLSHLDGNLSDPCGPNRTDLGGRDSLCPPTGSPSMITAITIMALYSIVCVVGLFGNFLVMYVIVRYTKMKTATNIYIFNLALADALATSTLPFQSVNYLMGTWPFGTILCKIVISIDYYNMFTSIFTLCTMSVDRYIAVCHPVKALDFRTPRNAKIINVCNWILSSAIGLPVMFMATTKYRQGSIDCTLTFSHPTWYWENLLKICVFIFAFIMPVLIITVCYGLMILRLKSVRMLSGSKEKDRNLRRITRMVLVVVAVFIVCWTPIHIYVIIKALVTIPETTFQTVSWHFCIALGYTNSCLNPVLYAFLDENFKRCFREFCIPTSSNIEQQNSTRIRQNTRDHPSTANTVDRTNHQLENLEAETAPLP
Chain of Opioid receptors; mu & delta (Homo sapiens) (P41143 whole entry, looked up): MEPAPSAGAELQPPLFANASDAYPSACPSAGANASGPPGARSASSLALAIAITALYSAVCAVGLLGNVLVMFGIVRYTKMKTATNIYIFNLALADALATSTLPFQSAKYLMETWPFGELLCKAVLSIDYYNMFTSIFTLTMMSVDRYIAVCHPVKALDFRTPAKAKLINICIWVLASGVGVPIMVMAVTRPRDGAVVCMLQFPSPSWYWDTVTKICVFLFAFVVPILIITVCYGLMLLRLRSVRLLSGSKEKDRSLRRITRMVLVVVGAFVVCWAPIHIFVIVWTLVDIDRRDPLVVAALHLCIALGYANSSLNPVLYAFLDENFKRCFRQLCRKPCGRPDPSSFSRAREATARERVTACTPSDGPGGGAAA
Chain of Mu-type opioid receptor (Homo sapiens, UniProt P35372) (P35372 whole entry): as the sequence (P35372 whole entry, looked up) above
Chain of Mu-type opioid receptor (Cavia porcellus, UniProt P97266) (P97266 whole entry): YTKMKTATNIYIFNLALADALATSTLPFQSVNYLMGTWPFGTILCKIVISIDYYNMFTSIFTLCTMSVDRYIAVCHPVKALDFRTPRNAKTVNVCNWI
Chain of Delta-type opioid receptor (Mus musculus, UniProt P32300) (P32300 whole entry): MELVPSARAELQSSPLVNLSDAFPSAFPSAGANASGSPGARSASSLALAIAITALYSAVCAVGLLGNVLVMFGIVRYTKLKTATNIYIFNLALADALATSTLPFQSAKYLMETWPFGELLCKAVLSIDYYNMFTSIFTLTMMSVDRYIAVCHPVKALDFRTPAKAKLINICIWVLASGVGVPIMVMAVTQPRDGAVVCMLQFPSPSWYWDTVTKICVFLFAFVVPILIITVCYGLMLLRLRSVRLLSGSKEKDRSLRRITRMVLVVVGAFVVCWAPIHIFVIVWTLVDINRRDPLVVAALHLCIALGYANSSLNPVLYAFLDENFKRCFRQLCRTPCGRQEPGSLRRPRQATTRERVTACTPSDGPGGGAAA
Chain of Opioid receptors; delta & kappa (Homo sapiens) (P41143 whole entry, looked up): as the sequence (P41143 whole entry, looked up) above
Chain of Opioid receptors; delta & kappa (Homo sapiens) (P41145 whole entry, looked up): as the sequence (P41145 whole entry) above
Chain of Delta-type opioid receptor (Homo sapiens, UniProt P41143) (P41143 whole entry): as the sequence (P41143 whole entry, looked up) above

Consider `O=Cc1cc2ccc(C(=O)Nc3cccc4c5c([nH]c34)[C@@H]3Oc4c(O)ccc6c4[C@@]34CCN(CC3CC3)[C@H](C6)[C@]4(O)C5)cc2cc1C=O`, for which the Ki on Mu-type opioid receptor [1] was 144 nM; in assay [3] it was 153 nM; in assay [5], 2.25 nM. Moreover, the IC50 at Mu-type opioid receptor [2] is 19.5 nM; in assay [6], 0.46 nM. The values for the Ratio Ki in assay [4] and in assay [7] were 64 and 68, respectively.

Broadly, the Ki is the dissociation constant of the complex between target and ligand, obtained from inhibition or displacement. Broadly, the IC50 is the concentration that gives 50% inhibition.
